The record followed here is ChEMBL document CHEMBL1154038, “Discovery of orally active, pyrrolidinone-based progesterone receptor partial agonists” (Bioorg Med Chem Lett, 2009).

Data set [1] is described as follows: Half life in rat at 1.3 mg/kg, po. Format: ADME, organism-based. On the set-up: dose 1.3 mg/kg, route oral. Conditions: in vivo.
The nature of data set [2]: AUC (0 to t) in rat at 1.3 mg/kg, po. Format: ADME, organism-based. Further details: dose 1.3 mg/kg, route oral. Conditions: plasma.
Data set [3] is described as follows: Plasma clearance in rat at 1.3 mg/kg, po. In kind it is ADME, organism-based. Further details: dose 1.3 mg/kg, route oral.
Data set [4] can be described thus: Volume of distribution at steady state in rat at 1 mg/kg, iv or 1.3 mg/kg, po. Format: ADME, organism-based. Conditions: in vivo, read-out: Vdss.
Data set [5] can be described thus: Cmax in rat at 1.3 mg/kg, po. Format: ADME, organism-based. Further details: dose 1.3 mg/kg, route oral. Conditions: in vivo.
Data set [6] can be described thus: Oral bioavailability in rat at 1.3 mg/kg. Conditions: in vivo. In kind it is ADME, organism-based.
The nature of data set [7]: Half life in rat at 2.2 mg/kg, po. On the set-up: dose 2.2 mg/kg, route oral. To be noted: in vivo. In kind it is ADME, organism-based.
Data set [8] in a line: Cmax in monkey at 1.6 mg/kg, po. Format: ADME, organism-based, Macaca mulatta. On the set-up: dose 1.6 mg/kg, route oral. Conditions: rhesus monkey, in vivo.
Data set [9] in a line: Cmax in rat at 2.2 mg/kg, po. In kind it is ADME, organism-based. On the set-up: dose 2.2 mg/kg, route oral. To be noted: in vivo.
A short description of data set [10]: Plasma clearance in monkey at 1.6 mg/kg, po. In kind it is ADME, organism-based, Macaca mulatta. On the set-up: dose 1.6 mg/kg, route oral. To be noted: rhesus monkey.
Data set [11] can be described thus: AUC (0 to t) in rat at 2.2 mg/kg, po. In kind it is ADME, organism-based. Further details: dose 2.2 mg/kg, route oral. To be noted: plasma.
Data set [12] in a line: Plasma clearance in rat at 2.2 mg/kg, po. Format: ADME, organism-based. Further details: dose 2.2 mg/kg, route oral.
The nature of data set [13]: Half life in monkey at 1.6 mg/kg, po. To be noted: rhesus monkey, in vivo. In kind it is ADME, organism-based, Macaca mulatta. On the set-up: dose 1.6 mg/kg, route oral.
Data set [14] is described as follows: AUC (0 to t) in monkey at 1.6 mg/kg, po. Format: ADME, organism-based, Macaca mulatta. On the set-up: dose 1.6 mg/kg, route oral. Conditions: rhesus monkey, plasma.
A short description of data set [15]: Oral bioavailability in rat at 2.2 mg/kg. In kind it is ADME, organism-based. Conditions: in vivo.
Data set [16] in a line: Volume of distribution at steady state in rat at 1 mg/kg, iv or 2.2 mg/kg, po. Format: ADME, organism-based. Conditions: in vivo, read-out: Vdss.
Data set [17] is described as follows: Oral bioavailability in monkey at 1.6 mg/kg, po. In kind it is ADME, organism-based, Macaca mulatta. To be noted: rhesus monkey, in vivo.
The nature of data set [18]: Volume of distribution at steady state in monkey at 1 mg/kg, iv or 1.6 mg/kg, po. In kind it is ADME, organism-based, Macaca mulatta. Conditions: rhesus monkey, in vivo, read-out: Vdss.
Data set [19] can be described thus: Cmax in rat at 0.12 mg/kg, po. Format: ADME, organism-based. On the set-up: dose 0.12 mg/kg, route oral. To be noted: in vivo.
Data set [20] is described as follows: Oral bioavailability in rat at 0.12 mg/kg. In kind it is ADME, organism-based. Conditions: in vivo.
Data set [21] in a line: Plasma clearance in rat at 0.12 mg/kg, po. Further details: dose 0.12 mg/kg, route oral. Format: ADME, organism-based.
Data set [22] is described as follows: AUC (0 to t) in rat at 0.12 mg/kg, po. Format: ADME, organism-based. On the set-up: dose 0.12 mg/kg, route oral. To be noted: plasma.
Data set [23] can be described thus: Volume of distribution at steady state in rat at 1.1 mg/kg, iv or 0.12 mg/kg, po. In kind it is ADME, organism-based. To be noted: in vivo, read-out: Vdss.
A short description of data set [24]: Half life in rat at 0.12 mg/kg, po. Format: ADME, organism-based. Further details: dose 0.12 mg/kg, route oral. To be noted: in vivo.
Data set [25] can be described thus: Plasma clearance in rat at 2.0 mg/kg, po. Format: ADME, organism-based. On the set-up: dose 2 mg/kg, route oral.
The nature of data set [26]: Volume of distribution at steady state in rat at 1.1 mg/kg, iv or 2 mg/kg, po. In kind it is ADME, organism-based. To be noted: in vivo, read-out: Vdss.
The nature of data set [27]: Oral bioavailability in monkey at 1.3 mg/kg, po. Conditions: rhesus monkey, in vivo. In kind it is ADME, organism-based, Macaca mulatta.
A short description of data set [28]: Volume of distribution at steady state in monkey at 1 mg/kg, iv or 1.3 mg/kg, po. To be noted: rhesus monkey, in vivo, read-out: Vdss. In kind it is ADME, organism-based, Macaca mulatta.
Data set [29] is described as follows: Plasma clearance in monkey at 1.3 mg/kg, po. In kind it is ADME, organism-based, Macaca mulatta. Further details: dose 1.3 mg/kg, route oral. Conditions: rhesus monkey.
The nature of data set [30]: Cmax in rat at 2 mg/kg, po. In kind it is ADME, organism-based. Further details: dose 2 mg/kg, route oral. To be noted: in vivo.
Data set [31] in a line: Half life in monkey at 1.3 mg/kg, po. In kind it is ADME, organism-based, Macaca mulatta. Further details: dose 1.3 mg/kg, route oral. Conditions: rhesus monkey, in vivo.
A short description of data set [32]: Half life in rat at 2 mg/kg, po. In kind it is ADME, organism-based. On the set-up: dose 2 mg/kg, route oral. Conditions: in vivo.
The nature of data set [33]: Oral bioavailability in rat at 2 mg/kg. Format: ADME, organism-based. Conditions: in vivo.
Data set [34] is described as follows: AUC (0 to t) in monkey at 1.3 mg/kg, po. Format: ADME, organism-based, Macaca mulatta. Further details: dose 1.3 mg/kg, route oral. To be noted: rhesus monkey, plasma.
A short description of data set [35]: Cmax in monkey at 1.3 mg/kg, po. In kind it is ADME, organism-based, Macaca mulatta. Further details: dose 1.3 mg/kg, route oral. Conditions: rhesus monkey, in vivo.
A short description of data set [36]: AUC (0 to t) in rat at 2 mg/kg, po. In kind it is ADME, organism-based. On the set-up: dose 2 mg/kg, route oral. To be noted: plasma.

The term half-life denotes how long it takes for the measured level to halve. As usually defined, the AUC(0-t) is exposure summed from dosing to a finite time, without extrapolation to infinity. Usually CL/F stands for the apparent clearance, not corrected for the fraction that reaches the circulation. For orientation: Cmax means the highest concentration seen after dosing. By bioavailability is commonly meant the share of a dose that reaches the circulation, judged against a reference dose that is usually intravenous. `CCN1C[C@@H](N(Cc2cc(F)ccc2Cl)c2ccc(C#N)c(Cl)c2)CC1=O` had a half-life in data set [1] of 2 h. The same compound gave an AUC(0-t) in [2] of 290 ng·h/mL. The same compound gave a CL/F in [3] of 75 mL/min/kg. In addition, the Vd in data set [4] was 15 L/kg. In addition, the peak concentration (Cmax) in data set [5] turned out to be 97 ng/mL. The compound further gave a bioavailability in [6] of 100%.

`CN1C[C@@H](N(Cc2cccc(F)c2F)c2ccc(C#N)c(Cl)c2)CC1=O`: the half-life in data set [7] is 6.2 h; in data set [13] it was 1.4 h. Besides, the figures for the Cmax in data set [8] and in data set [9] were 92 ng/mL and 660 ng/mL, respectively. Besides, the apparent clearance (CL/F) is 110 mL/min/kg in [10] and 16 mL/min/kg in data set [12]. The AUC(0-t) in data set [11] came out at 2300 ng·h/mL; in [14] it was 270 ng·h/mL. Also, the bioavailability was found to be 100% in [15] and 15% in [17]. Further, the Vd in [16] was 3.4 L/kg; in [18], 1.7 L/kg.

As to `CC(C)N1C[C@@H](N(Cc2ccccc2Cl)c2ccc(C#N)c(Cl)c2)CC1=O`, in data set [19], the highest level (Cmax) was 10 ng/mL. This compound displayed a bioavailability in [20] of 100%. The compound also showed an apparent clearance (CL/F) in data set [21] of 40 mL/min/kg. Besides, the AUC(0-t) in data set [22] was 30 ng·h/mL. Further, the Vd in data set [23] worked out at 42 L/kg. Also, the half-life in data set [24] is 5.8 h.

Turning to `CCN1C[C@@H](N(Cc2cc(Cl)ccc2Cl)c2ccc(C#N)c(Cl)c2)CC1=O`, the CL/F turned out to be 230 mL/min/kg in [25] and 480 mL/min/kg in data set [29]. The Vd stood at 35 L/kg in data set [26] and 2.8 L/kg in data set [28]. Moreover, the bioavailability in data set [27] amounted to 4.9%; in data set [33], 100%. Further, the Cmax in data set [30] came to 84 ng/mL; in data set [35], 15 ng/mL. Also, the half-life is 1.5 h in data set [31] and 1.8 h in [32]. Further, the area under the curve AUC(0-t) was determined as 32 ng·h/mL in data set [34] and 150 ng·h/mL in [36].
